Reference: US6410515B1, “Peptide, a method for its preparation and a pharmaceutical composition containing the peptide” (Immunotech Developments Inc., priority 1995, dated 2002)

Columns and labels:
[1] = tested on: patients with cytopenias of immune origin; test: Clinical study: blood indices and lymphocyte subpopulations; format: in vivo; settings: for CD4+/CD8+ ratio After iDD treatment: normal 0.7-3.3; for % of cells After iDD treatment: CD4−CD8+ T-Suppressers: normal 18.9-47.9; for % of cells After iDD treatment: CD4+CD8− T-helpers: normal 31.4-63.8
Method: (§1) The peptide iDD was given to patients with cytopenias of immune origin and its effect on hemopoietic status was assessed using a number of immunological tests characterising both humoral and cellular immunity.
(§2) The iDD was administered 0.1 mg in a 1 ml dose intranasally (once or twice in divided doses) for 5 days. The regime was repeated after a two week interval. For patients receiving steroids and cytostatics, iDD was administered during the therapy or before the cytostatic treatment.
Below are cited the examples of indices dynamics in some patients.

[2] = tested on: patients with cytopenias of immune origin; test: Clinical study: tolerability; format: in vivo
Method: as §1, §2

[3] = tested on: mixed lymphocyte culture (MLC); test: Mixed lymphocyte culture (MLC) proliferation; format: cell-based, mice
Method: The influence of the peptides of the invention on the proliferation of a mixed lymphocyte culture (MLC) was studied. The MLC experimental system is an in vitro analogue of the GVHD reaction.
Donor spleen cells from C57B1 mice ([…]) were injected into recipient (CBA×C57B1) F1 mice. Bone marrow was removed from the recipient and cultured for 4 days. The cultured cells were separated into 3 test groups, one group was treated with iDD, one with the L-peptide H-Ile-Glu-Trp-OH and one was a control. Each test peptide was added in various concentrations. Each determination was done in triplicate. ^3H-thymidine was added to each culture for 16 hours and the index of the proliferation of the cells was calculated.

[4] = tested on: hemopoietic progenitor cells (CFU-S); test: CFU-S content in bone marrow of mice irradiated with 4 Gy; format: in vivo; settings: day 8, control 401 ± 48
Method: The effect of H-A-D-Trp-Y, where A is D-Glu or D-iGlu and Y is OH or a substituted amide, on protection and reconstitution of the population of hemopoietic progenitor cells in cytopenias of different origin was studied.
Ionising radiation was used to deplete bone marrow. Donor mice were irradiated at a dose of 4 Gy. For each of the two peptides, 10 μg/kg was injected intraperitoneally 1 hour, 1 day or 2 days before the irradiation (groups of 12 mice each). Bone marrow was taken from femoral bones 8 days after the irradiation. Eight days generally marks the beginning of an exponential reconstitution of both the total number of cells and the population of hemopoietic progenitors in the bone marrow, which were depleted as a result of irradiation.
On the 8th day a sharp statistically significant increase was recorded in the hemopoietic progenitor cells count in the bone marrow of the mice irradiated in the dose of 4 Gy who had received the peptide 2 days before the irradiation.

[5] = tested on: (CBA×C57 B1) F1 mice; test: Chronic lymphocyte-induced GVHR in irradiated (6 Gy) mice; format: in vivo; settings: for Survival (%) / Survival (mice): after 60 days; for Survival (%): control 60; for Survival (mice): of 10 mice, control 6
Method: Recipient (CBA×C57 B1) F1 mice were irradiated with the dose of 6 Gy. Two hours after irradiation they were intravenously injected with 6 mln lymphocytes from mesenteric lymph nodes of C57B1 donor mice. […] The peptide was injected intraperitoneally once daily, 5 days a week, until day 21, for a total of 14 injections.
Indicators of the degree of GVHR development were animal weight and lymphocyte and leukocyte count. The animals were weighed every 3 days. On day 14 and day 28 lymphocyte and leukocyte count were determined using peripheral blood.

[6] = tested on: caryocytes in femoral marrow; test: Reconstitution of caryocyte numbers in femoral marrow after 4 Gy; format: in vivo, mice; settings: 10 μg/kg IP 2 days before 4 Gy
Method: The reconstitution of caryocyte numbers and that of hemopoietic progenitors was studied in femoral marrow after irradiation in the dose of 4 Gy and the peptide injection. The test was performed in 12 groups of mice, 6 animals each, and lasted 14 days. Intraperitoneal injections of the peptide in a dose of 10 μg/kg were made 1 day and 2 days before the irradiation.

H-D-iGlu-D-Trp-OH [iDD]
Absolute count after iDD: CD3−CD16,56+ nat. killers ([1]; Patient A, before 0.164): 0.108 bln/l | Absolute count after iDD: CD3+HLA−DR+ activated T-lymphocytes ([1]; Patient A, before 0.388): 0.251 bln/l | Absolute count after iDD: CD4−CD8+ T-Suppressers ([1]; Patient A, before 0.657): 0.305 bln/l | Absolute count after iDD: CD4+CD8− T-helpers ([1]; Patient A, before 0.769): 0.522 bln/l | Absolute count after iDD: CD45++CD14− lymphocytes ([1]; Patient A, before 1.6): 0.9 bln/l | Haemoglobin content ([1]; Patient A, iDD, no steroids): 106 g/L | CD4+/CD8+ ratio After iDD treatment ([1]; Patient A, test sample 1.2): 1.7 | % of cells After iDD treatment: CD45+CD14+ monocytes ([1]; Patient A, test sample 6.1): 3.3% | % of cells After iDD treatment: CD3−CD16,56+ nat. killers ([1]; Patient A, test sample 10.3): 12.0% | % of cells After iDD treatment: CD3+HLA−DR+ activated T-lymphocytes ([1]; Patient A, test sample 24.3, normal 2.8-17.3): 27.9% | % of cells After iDD treatment: CD45++CD14− lymphocytes ([1]; Patient A, test sample 33.2): 34.8% | % of cells After iDD treatment: CD4−CD8+ T-Suppressers ([1]; Patient A, test sample 41.1): 33.9% | % of cells After iDD treatment: CD45+CD14− granulocytes ([1]; Patient A, test sample 41.4): 48.5% | % of cells After iDD treatment: CD4+CD8− T-helpers ([1]; Patient A, test sample 48.1): 58.0% | Absolute count after iDD: CD3−CD16,56+ nat. killers ([1]; Patient K, before 0.057): 0.054 bln/l | Absolute count after iDD: CD4+CD8− T-helpers ([1]; Patient K, before 0.614): 0.393 bln/l | Absolute count after iDD: CD4−CD8+ T-Suppressers ([1]; Patient K, before 0.712): 0.510 bln/l | Absolute count after iDD: CD45++CD14− lymphocytes ([1]; Patient K, before 1.68): 1.09 bln/l | CD4+/CD8+ ratio After iDD treatment ([1]; Patient K, test sample 0.8): 0.8 | % of cells After iDD treatment: CD3−CD16,56+ nat. killers ([1]; Patient K, test sample 3.4, normal 4.8-26.7): 5.0% | % of cells After iDD treatment: CD45+CD14+ monocytes ([1]; Patient K, test sample 5.3): 5.2% | % of cells After iDD treatment: CD45++CD14− lymphocytes ([1]; Patient K, test sample 26.0): 20.2% | % of cells After iDD treatment: CD4+CD8− T-helpers ([1]; Patient K, test sample 36.3): 36.1% | % of cells After iDD treatment: CD4−CD8+ T-Suppressers ([1]; Patient K, test sample 44.5): 46.8% | % of cells After iDD treatment: CD45+CD14− granulocytes ([1]; Patient K, test sample 55.8): 74.7% | Dynamics of biochemical indices ([2]; before and after 1-3 treatment courses): no changes | Somatic status (physical examinations) ([2]; before and after the treatment): no changes | Changes in AP dynamics and ECG ([2]; iDD courses): not observed | Toxic and adverse reactions ([2]; prolonged administration (5-6 courses), 0.1 mg intranasally for 5 days): no toxic reactions | Effect on MLC when H-Ile-Glu-Trp-OH and iDD added in equal concentrations ([3]; both peptides in equal concentrations): the effect of iDD was predominant | Depression of the proliferation MLC ([3]; concentrations of 10 and 20 μg/ml, FIG. 1): ~50% | CFU-S count per femur ([4]; 10 μg/kg IP 1 hour before 4 Gy): 394 ± 57 | CFU-S count per femur ([4]; 10 μg/kg IP 1 day before 4 Gy): 324 ± 63 | CFU-S count per femur ([4]; 10 μg/kg IP 2 days before 4 Gy): 677 ± 49 | Animal Weight ([5]; Dose 10 μ/kg, Day 5, initial average 18.3 g): 18.0 grams | Animal Weight ([5]; Dose 10 μ/kg, Day 8): 18.3 grams | Animal Weight ([5]; Dose 10 μ/kg, Day 12): 18.3 grams | Animal Weight ([5]; Dose 10 μ/kg, Day 14): 17.8 grams | Animal Weight ([5]; Dose 10 μ/kg, Day 19): 17.6 grams | Animal Weight ([5]; Dose 10 μ/kg, Day 21): 17.8 grams | Animal Weight ([5]; Dose 10 μ/kg, Day 23): 18.6 grams | Animal Weight ([5]; Dose 10 μ/kg, Day 26): 18.9 grams | Animal Weight ([5]; Dose 10 μ/kg, Day 30): 18.9 grams | Animal Weight ([5]; Dose 10 μ/kg, Day 33): 18.9 grams | Animal Weight ([5]; Dose 10 μ/kg, Day 40): 19.2 grams | Animal Weight ([5]; Dose 10 μ/kg, Day 47): 19.9 grams | Animal Weight ([5]; Dose 10 μ/kg, Day 54): 20.0 grams | Animal Weight ([5]; Dose 10 μ/kg, Day 60): 20.0 grams | Animal Weight ([5]; Dose 100 μ/kg, Day 5, initial average 18.3 g): 18.6 grams | Animal Weight ([5]; Dose 100 μ/kg, Day 8): 18.5 grams | Animal Weight ([5]; Dose 100 μ/kg, Day 12): 18.6 grams | Animal Weight ([5]; Dose 100 μ/kg, Day 14): 19.0 grams | Animal Weight ([5]; Dose 100 μ/kg, Day 19): 19.0 grams | Animal Weight ([5]; Dose 100 μ/kg, Day 21): 19.3 grams | Animal Weight ([5]; Dose 100 μ/kg, Day 23): 19.6 grams | Animal Weight ([5]; Dose 100 μ/kg, Day 26): 19.6 grams | Animal Weight ([5]; Dose 100 μ/kg, Day 30): 19.7 grams | Animal Weight ([5]; Dose 100 μ/kg, Day 33): 19.7 grams | Animal Weight ([5]; Dose 100 μ/kg, Day 40): 20.0 grams | Animal Weight ([5]; Dose 100 μ/kg, Day 47): 20.3 grams | Animal Weight ([5]; Dose 100 μ/kg, Day 54): 20.4 grams | Animal Weight ([5]; Dose 100 μ/kg, Day 60): 20.4 grams | Animal Weight ([5]; Dose 1000 μ/kg, Day 5, initial average 18.3 g): 19.1 grams | Animal Weight ([5]; Dose 1000 μ/kg, Day 8): 19.1 grams | Animal Weight ([5]; Dose 1000 μ/kg, Day 12): 18.9 grams | Animal Weight ([5]; Dose 1000 μ/kg, Day 14): 18.9 grams | Animal Weight ([5]; Dose 1000 μ/kg, Day 19): 19.4 grams | Animal Weight ([5]; Dose 1000 μ/kg, Day 21): 19.6 grams | Animal Weight ([5]; Dose 1000 μ/kg, Day 23): 19.8 grams | Animal Weight ([5]; Dose 1000 μ/kg, Day 26): 19.8 grams | Animal Weight ([5]; Dose 1000 μ/kg, Day 30): 20.0 grams | Animal Weight ([5]; Dose 1000 μ/kg, Day 33): 20.0 grams | Animal Weight ([5]; Dose 1000 μ/kg, Day 40): 20.2 grams | Animal Weight ([5]; Dose 1000 μ/kg, Day 47): 20.5 grams | Animal Weight ([5]; Dose 1000 μ/kg, Day 54): 20.1 grams | Animal Weight ([5]; Dose 1000 μ/kg, Day 60): 20.4 grams | Survival (%) ([5]; Dose 10 μ/kg): 90% | Survival (mice) ([5]; Dose 10 μ/kg): 9 | Survival (%) ([5]; Dose 100 μ/kg): 90% | Survival (mice) ([5]; Dose 100 μ/kg): 9 | Survival (%) ([5]; Dose 1000 μ/kg): 80% | Survival (mice) ([5]; Dose 1000 μ/kg): 8 | Lymphocyte and leukocyte counts versus control mice ([5]; peripheral blood, day 14 and day 28, Table 20 not given): significantly higher | Caryocyte count ([6]; 4 days after irradiation, 4 Gy alone 9,0 ± 0,3): 12,8 ± 0,9 × 10^6 | Caryocyte count ([6]; 7 days after irradiation, 4 Gy alone 10,6 ± 0,8): 21,3 ± 2,1 × 10^6 | Caryocyte count ([6]; 11 days after irradiation, 4 Gy alone 17,0 ± 0,6): 17,3 ± 1,0 × 10^6 | Caryocyte count ([6]; 14 days after irradiation, 4 Gy alone 17,0 ± 1,2): 20,5 ± 0,5 × 10^6
